# pIC50: −log10 of the molar value.
# What was measured:
# [1] = molecular target: Glycogen synthase kinase-3 beta (Homo sapiens, UniProt P49841, H355L); experiment: Displacement of FL-KRREILSRRP[ps]ERYR-NH2 from human recombinant N-terminal His6-tagged GSK-3-beta (14 to 306 residues) H355L mutant expressed in baculovirus-infected Sf21 cells incubated for 20 hrs by fluorescence based analysis
# [2] = molecular target: Glycogen synthase kinase-3 alpha (Homo sapiens, UniProt P49840); experiment: Displacement of FL-KRREILSRRP[ps]ERYR-NH2 from human recombinant full length GST-tagged GSK-3-alpha expressed in insect cells incubated for 20 hrs by fluorescence based analysis; set-up: species or system Insect cell
# [3] = Selectivity ratio of IC50 for human recombinant full length GST-tagged GSK-3-alpha expressed in insect cells to IC50 for human recombinant N-terminal His6-tagged GSK-3-beta (14 to 306 residues) H355L mutant expressed in baculovirus-infected Sf21 cells
# [4] = molecular target: Mitogen-activated protein kinase 14 (Homo sapiens, UniProt Q16539); experiment: Inhibition of MAPK p38-alpha (unknown origin)
# [5] = molecular target: MAP kinase-activated protein kinase 2 (Homo sapiens, UniProt P49137); experiment: Inhibition of MK2 (unknown origin)
# [6] = molecular target: Glycogen synthase kinase-3 (Homo sapiens, UniProt P49840+P49841); experiment: Inhibition of GSK-3 in human U2OS cells transfected with beta-catenin GFP and 4R1N tau plasmid assessed as inhibition of Tau phosphorylation at Ser396 residues by high-content imaging assay; type: cell-based
# [7] = Metabolic stability in human liver microsomes assessed as parent compound remaining at 0.5 uM measured after 10 mins in presence of NADPH by LC-MS/MS analysis; type: ADME, Microsome; conditions: read-out: Stability
# [8] = Metabolic stability in rat liver microsomes assessed as parent compound remaining at 0.5 uM measured after 10 mins in presence of NADPH by LC-MS/MS analysis; type: ADME, Microsome; conditions: read-out: Stability
# [9] = Metabolic stability in mouse liver microsomes assessed as parent compound remaining at 0.5 uM measured after 10 mins in presence of NADPH by LC-MS/MS analysis; type: ADME, Microsome; conditions: read-out: Stability
# [10] = molecular target: AP2-associated protein kinase 1 (Homo sapiens, UniProt Q2M2I8); experiment: Inhibition of AAK1 (unknown origin)
# [11] = molecular target: Aurora kinase B (Homo sapiens, UniProt Q96GD4); experiment: Inhibition of Aurora kinase B (unknown origin)
# [12] = molecular target: Tyrosine-protein kinase BTK (Homo sapiens, UniProt Q06187); experiment: Inhibition of BTK (unknown origin)
# [13] = molecular target: Casein kinase II subunit alpha (Homo sapiens, UniProt P68400); experiment: Inhibition of CK2A1 (unknown origin)
# [14] = molecular target: Casein kinase II subunit alpha' (Homo sapiens, UniProt P19784); experiment: Inhibition of CK2A2 (unknown origin)
# [15] = molecular target: Mast/stem cell growth factor receptor Kit (Homo sapiens, UniProt P10721); experiment: Inhibition of c-Kit (unknown origin)
# [16] = molecular target: Interleukin-1 receptor-associated kinase 1 (Homo sapiens, UniProt P51617); experiment: Inhibition of IRAK1 (unknown origin)
# [17] = molecular target: Interleukin-1 receptor-associated kinase 4 (Homo sapiens, UniProt Q9NWZ3); experiment: Inhibition of IRAK4 (unknown origin)
# [18] = molecular target: Tyrosine-protein kinase JAK1 (Homo sapiens, UniProt P23458); experiment: Inhibition of JAK1 (unknown origin)
# [19] = molecular target: Tyrosine-protein kinase JAK2 (Homo sapiens, UniProt O60674); experiment: Inhibition of JAK2 (unknown origin)
# [20] = molecular target: Tyrosine-protein kinase Lck (Homo sapiens, UniProt P06239); experiment: Inhibition of LCK (unknown origin)
# [21] = molecular target: Platelet-derived growth factor receptor beta (Homo sapiens, UniProt P09619); experiment: Inhibition of PDGFR-beta (unknown origin)
# [22] = molecular target: Protein kinase C theta type (Homo sapiens, UniProt Q04759); experiment: Inhibition of PKC theta (unknown origin)
# [23] = molecular target: Ribosomal protein S6 kinase alpha-1 (Homo sapiens, UniProt Q15418); experiment: Inhibition of RSK1 (unknown origin)
# [24] = molecular target: Tyrosine-protein kinase SYK (Homo sapiens, UniProt P43405); experiment: Inhibition of SYK (unknown origin)
# [25] = molecular target: Non-receptor tyrosine-protein kinase TYK2 (Homo sapiens, UniProt P29597); experiment: Inhibition of TYK2 (unknown origin)
# [26] = molecular target: Cyclin-dependent kinase 2 (Homo sapiens, UniProt P24941); experiment: Inhibition of CDK2 (unknown origin)
# [27] = molecular target: Cyclin-dependent kinase 5 (Homo sapiens, UniProt Q00535); experiment: Inhibition of CDK5 (unknown origin)
# [28] = molecular target: Serine/threonine-protein kinase pim-1 (Homo sapiens, UniProt P11309); experiment: Inhibition of PIM1 (unknown origin)
# [29] = Permeability of the compound at 100 uM incubated for 4 hrs at pH 5.5 by PAMPA assay; type: ADME; conditions: read-out: permeability
# [30] = Permeability of the compound from apical to basolateral side in human Caco-2 cells at 3 uM incubated for 2 hrs by LC-MS/MS analysis; type: ADME, cell-based; conditions: read-out: permeability
# [31] = Permeability of the compound from basolateral to apical side in human Caco-2 cells at 3 uM incubated for 2 hrs by LC-MS/MS analysis; type: ADME, cell-based; conditions: read-out: permeability
# [32] = Protein binding in human plasma assessed as unbound fraction at 10 uM incubated for 5 hrs by equilibrium dialysis method; type: ADME, cell-free
# [33] = Protein binding in rat plasma assessed as unbound fraction at 10 uM incubated for 5 hrs by equilibrium dialysis method; type: ADME, cell-free
# [34] = Protein binding in mouse plasma assessed as unbound fraction at 10 uM incubated for 5 hrs by equilibrium dialysis method; type: ADME, cell-free
# [35] = Protein binding in mouse brain assessed as unbound fraction at 1 uM incubated for 4 hrs by LC-MS analysis; type: ADME, tissue-based
# [36] = Thermodynamic aqueous solubility of the compound at pH 1 incubated for 18 to 24 hrs by HPLC-UV analysis; type: physicochemical; conditions: aqueous medium, time 18-24 hrs, read-out: Therm_solubility
# [37] = Thermodynamic aqueous solubility of the compound at pH 7.4 incubated for 18 to 24 hrs by HPLC-UV analysis; type: physicochemical; conditions: aqueous medium, time 18-24 hrs, read-out: Therm_solubility
# [38] = Clearance in C57BL/6 mouse at 2 mg/kg, iv by LC-MS/MS analysis; type: ADME, organism-based; conditions: in vivo
# [39] = Volume of distribution at steady state in C57BL/6 mouse at 2 mg/kg, iv by LC-MS/MS analysis; type: ADME, organism-based; conditions: in vivo, read-out: Vdss
# [40] = MRT in C57BL/6 mouse at 2 mg/kg, iv by LC-MS/MS analysis; type: ADME, organism-based; conditions: in vivo
# [41] = Half life in C57BL/6 mouse at 2 mg/kg, iv by LC-MS/MS analysis; type: ADME, organism-based; conditions: in vivo
# [42] = AUC (total) in C57BL/6 mouse at 10 mg/kg, po by LC-MS/MS analysis; type: ADME, organism-based; set-up: dose 10 mg/kg, route po; conditions: in vivo
# [43] = Cmax in C57BL/6 mouse at 10 mg/kg, po by LC-MS/MS analysis; type: ADME, organism-based; set-up: dose 10 mg/kg, route po; conditions: in vivo
# [44] = Oral bioavailability in C57BL/6 mouse at 10 mg/kg by LC-MS/MS analysis; type: ADME, organism-based; conditions: in vivo
# [45] = Plasma concentration in LaFerla 3x transgenic Alzheimer's disease C57BL/6 mouse model at 10 mg/kg, po measured after 5 hrs; type: ADME, organism-based
# [46] = Drug uptake in brain of LaFerla 3x transgenic Alzheimer's disease C57BL/6 mouse model at 10 mg/kg, po measured after 5 hrs; type: ADME, organism-based; conditions: read-out: Drug uptake
# [47] = Ratio of drug concentration in brain to plasma in LaFerla 3x transgenic Alzheimer's disease C57BL/6 mouse model at 10 mg/kg, po measured after 5 hrs; type: ADME, organism-based; conditions: read-out: BPR
# [48] = Ratio of unbound drug concentration in mouse brain to plasma at 10 uM incubated for 5 hrs by equilibrium dialysis method; type: ADME, cell-free; conditions: read-out: K(p,uu,brain)
# [49] = Permeability of the compound at 100 uM incubated for 4 hrs at pH 7.4 by PAMPA assay; type: ADME; conditions: read-out: permeability
# [50] = molecular target: Casein kinase I isoform alpha (Homo sapiens, UniProt P48729); experiment: Inhibition of CK1A1 (unknown origin)
# [51] = molecular target: Aurora kinase A (Mus musculus, UniProt P97477); experiment: Inhibition of mouse Aurora kinase A
# Glycogen synthase kinase-3 alpha, sequence (P49840 whole entry, the tested form may be a part): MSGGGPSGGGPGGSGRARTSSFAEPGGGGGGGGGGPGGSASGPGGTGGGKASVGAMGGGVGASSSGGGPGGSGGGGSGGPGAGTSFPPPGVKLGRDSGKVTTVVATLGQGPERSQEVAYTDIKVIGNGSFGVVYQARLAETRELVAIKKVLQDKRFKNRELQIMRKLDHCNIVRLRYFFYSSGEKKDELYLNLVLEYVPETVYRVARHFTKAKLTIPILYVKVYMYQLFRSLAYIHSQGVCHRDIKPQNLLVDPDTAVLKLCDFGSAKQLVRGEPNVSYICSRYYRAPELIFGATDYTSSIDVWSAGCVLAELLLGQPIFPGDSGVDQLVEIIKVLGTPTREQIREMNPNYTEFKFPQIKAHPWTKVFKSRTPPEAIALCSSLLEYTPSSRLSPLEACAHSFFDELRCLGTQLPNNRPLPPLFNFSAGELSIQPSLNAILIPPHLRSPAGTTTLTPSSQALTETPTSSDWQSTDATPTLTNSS
# Glycogen synthase kinase-3 beta, sequence (P49841 whole entry, looked up, stated change not applied, the tested form may be a part): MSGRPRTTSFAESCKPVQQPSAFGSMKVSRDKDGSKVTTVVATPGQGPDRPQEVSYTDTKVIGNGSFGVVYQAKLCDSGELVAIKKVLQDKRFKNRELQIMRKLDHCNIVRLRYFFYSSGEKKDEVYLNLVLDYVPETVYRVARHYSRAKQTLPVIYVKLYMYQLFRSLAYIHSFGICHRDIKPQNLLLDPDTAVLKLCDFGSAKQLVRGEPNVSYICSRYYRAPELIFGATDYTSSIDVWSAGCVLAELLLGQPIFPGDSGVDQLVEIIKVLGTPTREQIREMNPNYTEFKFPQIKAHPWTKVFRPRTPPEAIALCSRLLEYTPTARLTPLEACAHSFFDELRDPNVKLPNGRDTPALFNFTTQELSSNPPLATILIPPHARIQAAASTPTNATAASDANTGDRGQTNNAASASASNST
# AP2-associated protein kinase 1, sequence (Q2M2I8 whole entry): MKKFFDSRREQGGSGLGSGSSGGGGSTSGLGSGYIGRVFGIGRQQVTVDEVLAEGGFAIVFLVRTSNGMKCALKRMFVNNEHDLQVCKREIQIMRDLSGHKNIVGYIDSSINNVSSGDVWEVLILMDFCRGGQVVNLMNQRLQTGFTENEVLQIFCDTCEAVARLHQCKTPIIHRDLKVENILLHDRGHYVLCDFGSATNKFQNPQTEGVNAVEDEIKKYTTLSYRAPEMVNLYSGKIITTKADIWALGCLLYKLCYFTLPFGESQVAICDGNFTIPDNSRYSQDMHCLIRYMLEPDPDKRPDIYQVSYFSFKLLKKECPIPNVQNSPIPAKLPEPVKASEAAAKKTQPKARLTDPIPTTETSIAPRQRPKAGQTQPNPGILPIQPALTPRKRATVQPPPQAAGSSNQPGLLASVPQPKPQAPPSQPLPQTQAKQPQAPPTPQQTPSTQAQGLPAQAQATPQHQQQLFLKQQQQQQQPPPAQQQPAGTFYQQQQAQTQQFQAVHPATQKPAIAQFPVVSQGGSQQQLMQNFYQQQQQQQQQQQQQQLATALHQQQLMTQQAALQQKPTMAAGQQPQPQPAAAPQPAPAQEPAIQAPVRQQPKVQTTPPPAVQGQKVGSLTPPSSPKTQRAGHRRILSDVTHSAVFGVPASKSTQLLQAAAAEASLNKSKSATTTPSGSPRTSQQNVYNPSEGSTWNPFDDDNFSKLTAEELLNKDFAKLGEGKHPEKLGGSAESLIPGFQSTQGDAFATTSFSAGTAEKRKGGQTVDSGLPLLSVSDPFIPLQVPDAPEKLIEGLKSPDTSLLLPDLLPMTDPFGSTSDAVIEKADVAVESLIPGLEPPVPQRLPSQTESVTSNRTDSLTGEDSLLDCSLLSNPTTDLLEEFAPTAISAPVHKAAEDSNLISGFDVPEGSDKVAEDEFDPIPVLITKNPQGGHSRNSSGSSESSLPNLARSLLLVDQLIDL
# MAP kinase-activated protein kinase 2, sequence (P49137 whole entry): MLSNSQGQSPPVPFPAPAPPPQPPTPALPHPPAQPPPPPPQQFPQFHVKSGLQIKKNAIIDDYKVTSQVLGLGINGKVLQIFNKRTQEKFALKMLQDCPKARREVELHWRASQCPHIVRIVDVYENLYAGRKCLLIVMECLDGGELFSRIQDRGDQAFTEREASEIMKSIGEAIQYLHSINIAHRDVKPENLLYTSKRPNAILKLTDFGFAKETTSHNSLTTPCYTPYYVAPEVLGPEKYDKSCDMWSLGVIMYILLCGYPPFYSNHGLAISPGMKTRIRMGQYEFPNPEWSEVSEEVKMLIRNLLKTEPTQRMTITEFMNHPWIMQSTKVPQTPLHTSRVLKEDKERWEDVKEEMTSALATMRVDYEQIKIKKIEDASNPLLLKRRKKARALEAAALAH
# Casein kinase II subunit alpha, sequence (P68400 whole entry): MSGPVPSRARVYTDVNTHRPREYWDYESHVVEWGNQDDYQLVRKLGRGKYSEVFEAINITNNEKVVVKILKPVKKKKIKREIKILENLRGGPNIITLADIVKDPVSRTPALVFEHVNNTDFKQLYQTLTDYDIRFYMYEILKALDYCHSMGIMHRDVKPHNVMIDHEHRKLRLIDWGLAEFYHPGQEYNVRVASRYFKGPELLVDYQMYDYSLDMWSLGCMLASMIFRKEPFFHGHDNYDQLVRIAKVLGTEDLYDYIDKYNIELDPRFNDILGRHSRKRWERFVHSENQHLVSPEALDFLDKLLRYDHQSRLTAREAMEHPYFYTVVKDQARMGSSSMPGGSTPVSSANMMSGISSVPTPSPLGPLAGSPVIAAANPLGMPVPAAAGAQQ
# Non-receptor tyrosine-protein kinase TYK2, sequence (P29597 whole entry): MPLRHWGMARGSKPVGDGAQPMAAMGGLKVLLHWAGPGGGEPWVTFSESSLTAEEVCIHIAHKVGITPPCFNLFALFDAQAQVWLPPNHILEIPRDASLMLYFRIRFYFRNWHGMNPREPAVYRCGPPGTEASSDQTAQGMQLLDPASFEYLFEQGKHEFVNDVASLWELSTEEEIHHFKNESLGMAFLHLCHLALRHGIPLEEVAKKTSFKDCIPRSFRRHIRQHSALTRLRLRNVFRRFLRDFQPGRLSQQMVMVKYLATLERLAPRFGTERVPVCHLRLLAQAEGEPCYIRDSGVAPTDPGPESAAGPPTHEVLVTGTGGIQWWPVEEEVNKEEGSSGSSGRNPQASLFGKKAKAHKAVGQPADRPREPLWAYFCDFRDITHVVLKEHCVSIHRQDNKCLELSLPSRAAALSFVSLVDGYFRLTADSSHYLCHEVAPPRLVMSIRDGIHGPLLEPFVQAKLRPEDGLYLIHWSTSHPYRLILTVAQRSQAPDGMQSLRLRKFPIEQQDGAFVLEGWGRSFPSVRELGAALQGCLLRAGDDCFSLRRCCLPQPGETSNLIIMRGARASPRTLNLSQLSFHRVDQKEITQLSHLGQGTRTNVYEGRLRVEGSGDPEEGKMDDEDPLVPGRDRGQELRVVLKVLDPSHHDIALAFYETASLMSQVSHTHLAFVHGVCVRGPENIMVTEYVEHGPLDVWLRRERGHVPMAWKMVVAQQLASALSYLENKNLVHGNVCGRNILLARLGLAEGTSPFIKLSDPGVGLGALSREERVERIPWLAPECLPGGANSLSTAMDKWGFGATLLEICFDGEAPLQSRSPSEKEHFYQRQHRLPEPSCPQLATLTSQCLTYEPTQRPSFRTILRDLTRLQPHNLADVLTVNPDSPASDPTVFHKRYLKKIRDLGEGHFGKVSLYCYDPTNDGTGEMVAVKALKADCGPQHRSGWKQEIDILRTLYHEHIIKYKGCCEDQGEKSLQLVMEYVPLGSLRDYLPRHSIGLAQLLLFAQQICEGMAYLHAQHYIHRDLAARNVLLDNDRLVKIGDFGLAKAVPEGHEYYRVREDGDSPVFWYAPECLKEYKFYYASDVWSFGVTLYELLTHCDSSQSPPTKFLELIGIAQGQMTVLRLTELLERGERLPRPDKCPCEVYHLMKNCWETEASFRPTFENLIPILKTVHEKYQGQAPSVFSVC
# Tyrosine-protein kinase JAK2, sequence (O60674 whole entry): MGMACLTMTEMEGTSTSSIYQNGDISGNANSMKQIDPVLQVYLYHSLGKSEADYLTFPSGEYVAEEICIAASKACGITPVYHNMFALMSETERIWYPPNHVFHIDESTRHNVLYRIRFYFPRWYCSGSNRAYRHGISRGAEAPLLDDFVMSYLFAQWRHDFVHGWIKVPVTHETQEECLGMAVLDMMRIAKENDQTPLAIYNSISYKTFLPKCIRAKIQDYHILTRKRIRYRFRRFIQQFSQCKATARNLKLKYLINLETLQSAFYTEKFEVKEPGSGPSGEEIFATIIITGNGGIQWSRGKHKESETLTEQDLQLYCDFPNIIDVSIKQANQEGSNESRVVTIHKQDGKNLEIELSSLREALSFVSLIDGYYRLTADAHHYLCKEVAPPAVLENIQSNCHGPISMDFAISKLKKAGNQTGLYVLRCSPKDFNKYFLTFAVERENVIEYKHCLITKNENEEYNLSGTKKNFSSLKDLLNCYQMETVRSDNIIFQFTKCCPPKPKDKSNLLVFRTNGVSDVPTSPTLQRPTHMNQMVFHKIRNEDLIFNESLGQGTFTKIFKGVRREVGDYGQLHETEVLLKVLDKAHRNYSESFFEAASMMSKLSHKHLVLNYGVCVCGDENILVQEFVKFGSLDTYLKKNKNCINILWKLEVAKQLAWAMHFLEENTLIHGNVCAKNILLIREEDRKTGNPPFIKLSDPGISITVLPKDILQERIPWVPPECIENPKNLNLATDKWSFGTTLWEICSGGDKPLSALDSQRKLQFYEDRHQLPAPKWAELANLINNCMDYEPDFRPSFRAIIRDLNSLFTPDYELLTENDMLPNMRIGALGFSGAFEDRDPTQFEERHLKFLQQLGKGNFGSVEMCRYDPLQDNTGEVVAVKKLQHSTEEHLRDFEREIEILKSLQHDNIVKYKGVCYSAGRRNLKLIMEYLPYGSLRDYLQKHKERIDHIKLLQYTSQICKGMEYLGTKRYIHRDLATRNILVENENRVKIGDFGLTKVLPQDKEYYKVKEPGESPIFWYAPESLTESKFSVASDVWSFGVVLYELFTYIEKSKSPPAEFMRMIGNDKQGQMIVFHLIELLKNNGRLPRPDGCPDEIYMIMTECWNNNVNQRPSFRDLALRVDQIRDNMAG
smiles,measurement,setting,value
O=C(Nc1cccnc1)c1ccncn1,pIC50,[1],< 5.70
same,pIC50,[2],< 5.70
same,Ratio IC50,[3],< 2
O=C(Nc1cnccc1N1CCC(F)(F)CC1)c1ccncn1,pIC50,[1],6.59
same,pIC50,[2],6.33
same,Ratio IC50,[3],< 2
Nc1nccc(C(=O)Nc2cnccc2N2CCC(F)(F)CC2)n1,pIC50,[1],7.52
same,Ratio IC50,[3],< 2
O=C(Nc1cnccc1-c1ccc(F)cc1)c1ccnc(Nc2ccc(F)cc2)n1,pIC50,[4],< 4.30
same,pIC50,[5],< 4.57
same,pIC50,[1],9.25
same,pIC50,[2],9.35
same,IC50,[6],34 nM
same,"remaining at 10 min, 0.5 µM",[7],67%
same,"remaining at 10 min, 0.5 µM",[8],10%
same,"remaining at 10 min, 0.5 µM",[9],54%
same,pIC50,[10],< 5.70
same,pIC50,[11],4.96
same,pIC50,[12],< 4.30
same,pIC50,[13],< 4.30
same,pIC50,[14],< 5.70
same,pIC50,[15],< 5.70
same,pIC50,[16],< 5.70
same,pIC50,[17],< 4.64
same,pIC50,[18],< 4.30
same,pIC50,[19],4.85
same,pIC50,[20],< 5.70
same,pIC50,[21],< 4.30
same,pIC50,[22],4.98
same,pIC50,[23],< 4.30
same,pIC50,[24],4.80
same,pIC50,[25],4.77
same,pIC50,[26],6.33
same,pIC50,[27],6.17
same,pIC50,[28],5.85
same,"Papp at 4 h, 100 µM",[29],62 ×10⁻⁶ cm/s
same,"Papp A→B at 2 h, 3 µM",[30],11.8 ×10⁻⁶ cm/s
same,"Papp B→A at 2 h, 3 µM",[31],4.4 ×10⁻⁶ cm/s
same,"fraction unbound at 5 h, 10 µM",[32],0.002
same,"fraction unbound at 5 h, 10 µM",[33],0.007
same,"fraction unbound at 5 h, 10 µM",[34],0.008
same,"fraction unbound at 4 h, 1 µM",[35],0.003
same,solubility thermodynamic,[36],31 µg/mL
same,solubility thermodynamic,[37],1 µg/mL
same,clearance,[38],18.9 mL/min/kg
same,Vd,[39],2.6 L/kg
same,MRT,[40],2.3 h
same,half-life,[41],2.8 h
same,AUC,[42],11.7 µM·h
same,Cmax,[43],1500 nM
same,bioavailability,[44],53%
same,concentration at 5 h,[45],180 nM
same,concentration at 5 h,[46],180 nM
same,Kp at 5 h,[47],1
same,"Kp uu at 5 h, 10 µM",[48],0.4
same,"Papp at 4 h, 100 µM",[49],59 ×10⁻⁶ cm/s
same,pIC50,[50],< 5.70
same,pIC50,[51],< 4.30
O=C(Nc1cnccc1-c1ccccc1)c1ccnc(Nc2ccc(Cl)cc2)n1,pIC50,[1],9.31
same,pIC50,[2],9.52
same,IC50,[6],70 nM
same,"remaining at 10 min, 0.5 µM",[7],78%
same,"remaining at 10 min, 0.5 µM",[8],70%
same,"remaining at 10 min, 0.5 µM",[9],86%
same,"Papp at 4 h, 100 µM",[29],90 ×10⁻⁶ cm/s
same,"Papp A→B at 2 h, 3 µM",[30],8.3 ×10⁻⁶ cm/s
same,"Papp B→A at 2 h, 3 µM",[31],3 ×10⁻⁶ cm/s
same,"Papp at 4 h, 100 µM",[49],85 ×10⁻⁶ cm/s

# From ChEMBL document CHEMBL5338804 (J Med Chem, 2023)
